The source of these data is ChEMBL document CHEMBL2029279, “Structure-activity relationships and molecular modeling of the N-(3-pivaloyloxy-2-benzylpropyl)-N'-[4-(methylsulfonylamino)benzyl] thiourea template for TRPV1 antagonism” (Bioorg Med Chem Lett, 2012).

Activity calls are given as the source filed them. The calls are words filed in the database; no cut-off is given here.

The target of experiment [1] is Transient receptor potential cation channel subfamily V member 1 (Rattus norvegicus) (UniProt O35433). In words: Agonist activity at rat TRPV1 expressed in CHO cells assessed as induction of 45Ca2+ uptake at 30 uM relative to capsaicin. The format is functional, cell-based.
Chain of Transient receptor potential cation channel subfamily V member 1 (Rattus norvegicus) (O35433 whole entry): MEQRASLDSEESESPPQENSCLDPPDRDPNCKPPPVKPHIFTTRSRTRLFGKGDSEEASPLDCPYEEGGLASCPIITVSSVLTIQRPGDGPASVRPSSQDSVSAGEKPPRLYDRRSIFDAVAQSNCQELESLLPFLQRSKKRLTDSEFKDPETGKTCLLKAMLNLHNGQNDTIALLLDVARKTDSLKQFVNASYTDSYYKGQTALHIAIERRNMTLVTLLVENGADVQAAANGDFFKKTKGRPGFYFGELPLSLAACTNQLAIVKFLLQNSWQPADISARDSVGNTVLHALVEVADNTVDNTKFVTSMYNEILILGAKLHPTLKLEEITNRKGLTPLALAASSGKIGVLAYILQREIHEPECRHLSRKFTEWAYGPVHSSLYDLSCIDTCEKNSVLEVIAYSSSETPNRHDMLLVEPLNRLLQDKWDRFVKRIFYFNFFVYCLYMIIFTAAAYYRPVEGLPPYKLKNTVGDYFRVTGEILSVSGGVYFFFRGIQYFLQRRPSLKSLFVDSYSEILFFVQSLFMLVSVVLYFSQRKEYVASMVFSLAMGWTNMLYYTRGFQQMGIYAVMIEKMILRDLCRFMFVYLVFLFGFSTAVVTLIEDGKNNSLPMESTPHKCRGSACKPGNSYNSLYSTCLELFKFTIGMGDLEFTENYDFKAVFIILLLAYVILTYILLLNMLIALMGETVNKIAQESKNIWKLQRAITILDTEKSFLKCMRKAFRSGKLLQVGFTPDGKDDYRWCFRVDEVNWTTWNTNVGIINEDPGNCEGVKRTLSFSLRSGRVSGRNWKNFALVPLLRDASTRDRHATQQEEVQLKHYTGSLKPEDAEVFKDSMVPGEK
Experiment [2] concerns the target T1, Transient receptor potential cation channel subfamily V member 1 (Rattus norvegicus, UniProt O35433). In words: Displacement of [3H]RTX from rat TRPV1 expressed in CHO cells. The format is cell-based. On the technique in general: Displacement assays read how much labelled ligand stays bound in the presence of the test substance.
The target in experiment [3] is T1, Transient receptor potential cation channel subfamily V member 1. The experiment is described as follows: Antagonist activity at rat TRPV1 expressed in CHO cells assessed as inhibition of 45Ca2+ uptake. The format is functional, cell-based.
The target in experiment [4] is Transient receptor potential cation channel subfamily V member 1 (Rattus norvegicus) (UniProt O35433). In words: Antagonist activity at rat TRPV1 expressed in CHO cells assessed as inhibition of 45Ca2+ uptake relative to control. The format is functional, cell-based. More on the design: scale not given: the % may be the effect or the level left.

T1 sequence (O35433 whole entry): as above

Consider `Cc1ccc(CC(COC(=O)C(C)(C)C)NC(=S)NCc2ccc(NS(C)(=O)=O)c(F)c2)cc1C` (stereo unspecified), for which, in experiment [1], the result was inactive. Also, the inhibition constant Ki (as a rule, a measure of affinity in units of concentration, obtained from inhibition or displacement) was 233 nM in experiment [2] and 650 nM in experiment [3].
The like results for `CC(C)(C)C(=O)OCC(CNC(=S)NCc1ccc(NS(C)(=O)=O)cc1)c1ccc(C(C)(C)C)cc1` (stereo unspecified) were, in that order, “inactive”, 143 nM and 91 nM.
The like results for `CC(C)(C)C(=O)OCC(CNC(=S)NCc1ccc(NS(C)(=O)=O)c(F)c1)c1ccc(C(C)(C)C)cc1` (stereo unspecified) were, in that order, “inactive”, 69 nM and 116 nM.
With `CC(C)(C)C(=O)OCC(NC(=S)NCc1ccc(NS(C)(=O)=O)c(F)c1)c1ccc(C(C)(C)C)cc1` (stereo unspecified), the values for the Activity in experiment [4] and in experiment [1] were 72% and 35%, respectively. In addition, the inhibition constant (Ki) was 244 nM in experiment [2] and 213 nM in experiment [3].
`Cc1ccc(CC(COC(=O)C(C)(C)C)NC(=S)NCc2ccc(NS(C)(=O)=O)cc2)cc1C` (stereo unspecified): the Activity turned out to be 48% in experiment [4] and 19% in experiment [1]. The affinity in experiment [2] corresponds to a Ki of 580 nM.
On to `CC(C)(C)C(=O)OCC(NC(=S)NCc1ccc(NS(C)(=O)=O)cc1)c1ccc(C(C)(C)C)cc1` (stereo unspecified), for which the Activity in experiment [4] and in experiment [1] was 46% each time. The inhibitory constant (Ki) was 197 nM in experiment [2] and 940 nM in experiment [3].
Consider `CC(C)(C)C(=O)OCC(Cc1ccc(C(C)(C)C)cc1)NC(=S)NCc1ccc(NS(C)(=O)=O)cc1` (stereo unspecified), for which the Activity in experiment [4] came to 31%; in experiment [1] it was 8%. Also, the affinity in experiment [2], expressed as Ki, was 416 nM.
For the compound `CC(C)(C)C(=O)OCC(CCc1ccc(C(C)(C)C)cc1)NC(=S)NCc1ccc(NS(C)(=O)=O)c(F)c1` (stereo unspecified), in experiment [1], the outcome was inactive. Moreover, the inhibition constant Ki in experiment [2] came out at 190 nM; in experiment [3], 152 nM.
As for `Cc1ccc(CCC(COC(=O)C(C)(C)C)NC(=S)NCc2ccc(NS(C)(=O)=O)c(F)c2)cc1C` (stereo unspecified), in experiment [1], the result was inactive. Further, the values for the inhibition constant Ki in experiment [2] and in experiment [3] were 120 nM and 111 nM, respectively.
Consider `CC(C)(C)C(=O)OCC(CCc1ccc(C(C)(C)C)cc1)NC(=S)NCc1ccc(NS(C)(=O)=O)cc1` (stereo unspecified), for which, in experiment [1], the result was inactive. Further, the inhibition constant Ki in experiment [2] was 366 nM; in experiment [3] it was 286 nM.
Take `Cc1ccc(CC(CN/C(S)=N/Cc2ccc(NS(C)(=O)=O)cc2)COC(=O)C(C)(C)C)cc1C` (stereo unspecified): in experiment [1], the Activity was 15%.
Turning to `Cc1ccc(CC(CNC(=S)NCc2ccc(NS(C)(=O)=O)c(F)c2)COC(=O)C(C)(C)C)cc1C` (stereo unspecified), the result in experiment [1] was inactive.
Regarding `CC(C)(C)C(=O)OCC(C/N=C(\S)NCc1ccc(NS(C)(=O)=O)cc1)Cc1ccc(C(C)(C)C)cc1` (stereo unspecified), the Activity in experiment [1] came out at 40%.
Regarding `CC(C)(C)C(=O)OCC(Cc1ccc(C(C)(C)C)cc1)NC(=S)NCc1ccc(NS(C)(=O)=O)c(F)c1` (stereo unspecified), the outcome in experiment [1] was inactive. In addition, the results for the inhibition constant Ki in experiment [2] and in experiment [3] were 115 nM and 179 nM, respectively.
The like results for `Cc1ccc(CCC(COC(=O)C(C)(C)C)NC(=S)NCc2ccc(NS(C)(=O)=O)cc2)cc1C` (stereo unspecified) were, in that order, 5%, 390 nM and 33.7 nM.
